Reference: patent US20260022143A1, “Cyclic Peptide Inhibitors of IL-23” (JANSSEN PHARMACEUTICA NV, priority 2022, published 2026)
Starred links: 1 amine or outer side, 2 acyl side, 3 side chain; linkers in the order of their positions; H or OH if unused. Positions of bridges follow the written chain, without caps; N, C: chain ends. Non-standard residues stand in square brackets, D forms with d. Residues, ends and D or L forms follow the SMILES beside them. *: point of attachment. Me3N+(CH2)2O(CH2)2O(CH2)2CO = C[N+](C)(C)CCOCCOCCC(=O)*; X34 = C[N+](C)(C)CCOCCOCCC(=O)N(CC[N+](C)(C)C)CC*; CH2CH2OCH2CH2OCH2CH2NMe3+ = C[N+](C)(C)CCOCCOCC*; Trp(7-Me) = Cc1cccc2c(C[C@H](N)C(=O)O)c[nH]c12; Hexanoyl(6-NMe3+) = C[N+](C)(C)CCCCCC(=O)*; dLys(Me3) = C[N+](C)(C)CCCC[C@@H](N)C(=O)O; Decanoyl(3,6,9-trioxa) = COCCOCCOCC(=O)*; Dab(NMeAc) = CC(=O)N(C)CC[C@H](N)C(=O)O; X1 = CN(CC[C@H](N[*:1])C(=O)[*:2])[*:3]; 2Nal = N[C@@H](Cc1ccc2ccccc2c1)C(=O)O; AEF = NCCOc1ccc(C[C@H](N)C(=O)O)cc1; X24 = C[N+](C)(CCN[*:1])CC(=O)[*:2]; 3Pal = N[C@@H](Cc1cccnc1)C(=O)O; Lys(Me) = CNCCCC[C@H](N)C(=O)O; Pen = CC(C)(S)[C@H](N)C(=O)O; X4 = COCCOCCCN(CCCOCCOC)CC*; X86 = C[N+]1(C)CCCC(C*)C1; Thp = NC1(C(=O)O)CCOCC1; Dap = NC[C@H](N)C(=O)O; X61 = COCCOCCCNCC*; Sar = CNCC(=O)O

Assay: Exposed Polar Surface Area (EPSA)
Assay type: physicochemical
Conditions: SFC on Chirex 3014 column; sample 1 mM DMSO stock; read-out: EPSA
Outline: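 Retention-based polarity: supercritical CO2 with 20 mM ammonium formate in MeOH (5–60%, 20%/min), Chirex 3014 column, 35 °C. Calibrated against 8 standards to give EPSA (Å^2); each sample measured twice.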

Compound	EPSA [A^2]
CC(=O)NCCCC[C@@H]1NC(=O)[C@H](Cc2c[nH]c3c(C)cccc23)NC(=O)[C@H]([C@@H](C)O)NC(=O)[C@H](CC(N)=O)NC(=O)[C@@H](NC(=O)CCCCC[N+](C)(C)C)C(C)(C)SSC(C)(C)[C@@H](C(=O)N[C@@H](Cc2ccc(OCCNC(=O)CCOCCOCC[N+](C)(C)C)cc2)C(=O)N[C@@H](Cc2ccc3ccccc3c2)C(=O)NC2(C(=O)N[C@@H](CNC(C)=O)C(=O)N[C@@H](CC(N)=O)C(=O)N[C@@H](Cc3cccnc3)C(=O)N(C)CC(N)=O)CCOCC2)NC1=O [compound 192]	149
CC(=O)NCCCC[C@@H]1NC(=O)[C@H](Cc2c[nH]c3c(C)cccc23)NC(=O)[C@H]([C@@H](C)O)NC(=O)[C@H](CC(N)=O)NC(=O)[C@@H](NC(C)=O)C(C)(C)SSC(C)(C)[C@@H](C(=O)N[C@@H](Cc2ccc(OCCOCCOCC[N+](C)(C)C)cc2)C(=O)N[C@@H](Cc2ccc3ccccc3c2)C(=O)NC2(C(=O)N[C@@H](CCCCNC(C)=O)C(=O)N[C@@H](CC(N)=O)C(=O)N[C@@H](Cc3cccnc3)C(=O)N(C)CC(N)=O)CCOCC2)NC1=O [compound 194] (Ac-[Pen]NT[Trp(7-Me)]K(Ac)[Pen]Y(CH2CH2OCH2CH2OCH2CH2NMe3+)[2Nal][Thp]K(Ac)N[3Pal][Sar]-NH2; disulfide 1-6)	146
CC(=O)N(C)CC[C@H](NC(=O)C1(NC(=O)[C@H](Cc2ccc3ccccc3c2)NC(=O)[C@H](Cc2ccc(OCCN)cc2)NC(=O)[C@H]2NC(=O)[C@H](CCN(C)C(=O)CCOCCOCC[N+](C)(C)C)NC(=O)[C@H](Cc3c[nH]c4c(C)cccc34)NC(=O)[C@H]([C@@H](C)O)NC(=O)[C@H](CC(=O)N(C)C)NC(=O)[C@@H](NC(=O)CCOCCOCC[N+](C)(C)C)C(C)(C)SSC2(C)C)CCOCC1)C(=O)N[C@@H](CC(N)=O)C(=O)N[C@@H](Cc1cccnc1)C(=O)N(C)CC(=O)N(C)C [compound 196, cPEG3aCO-Pen(3)-N(N(Me)2)-T-7MeW-Dab(NMecPEG3a)-Pen(3)-AEF-2Nal-THP-Dab(NMeAc)-N-3Pya-Sar-CON(Me)2] ({Me3N+(CH2)2O(CH2)2O(CH2)2CO}-[Pen]D(NMe2)T[Trp(7-Me)][X1](Me3N+(CH2)2O(CH2)2O(CH2)2CO)[Pen][AEF][2Nal][Thp][Dab(NMeAc)]N[3Pal][Sar]-NMe2; disulfide 1-6 (inferred))	149
COCCOCCOCC(=O)NCC[N+](C)(C)CC(=O)N[C@@H]1C(=O)N[C@@H](CC(=O)N(C)C)C(=O)N[C@@H]([C@@H](C)O)C(=O)N[C@@H](Cc2c[nH]c3c(C)cccc23)C(=O)N[C@@H](CCCCN(C)C(C)=O)C(=O)N[C@H](C(=O)N[C@@H](Cc2ccc(OCCOCCOCC[N+](C)(C)C)cc2)C(=O)N[C@@H](Cc2ccc3ccccc3c2)C(=O)NC2(C(=O)N[C@@H](CCN(C)C(C)=O)C(=O)N[C@@H](CC(N)=O)C(=O)N[C@@H](Cc3cccnc3)C(=O)N(C)CC(=O)N(C)C)CCOCC2)C(C)(C)SSC1(C)C [compound 197, mPEG3CO-SP6-Pen(3)-N(N(Me)2)-T-7MeW-K(NMeAc)-Pen(3)-APEG3F-2Nal-THP-Dab(NMeAc)-N-3Pya-Sar-CON(Me)2] ({Decanoyl(3,6,9-trioxa)}-[X24][Pen]D(NMe2)T[Trp(7-Me)][Lys(Me)](Ac)[Pen]Y(CH2CH2OCH2CH2OCH2CH2NMe3+)[2Nal][Thp][Dab(NMeAc)]N[3Pal][Sar]-NMe2; disulfide 2-7)	137
CC(=O)N(C)CCCC[C@@H]1NC(=O)[C@H](Cc2c[nH]c3c(C)cccc23)NC(=O)[C@H]([C@@H](C)O)NC(=O)[C@H](CC(=O)N(C)C)NC(=O)[C@@H](NC(=O)CCOCCOCC[N+](C)(C)C)C(C)(C)SSC(C)(C)[C@@H](C(=O)N[C@@H](Cc2ccc(OCC3CCC[N+](C)(C)C3)cc2)C(=O)N[C@@H](Cc2ccc3ccccc3c2)C(=O)NC2(C(=O)N[C@@H](CCCCN(C)C(C)=O)C(=O)N[C@@H](CC(N)=O)C(=O)N[C@@H](Cc3cccnc3)C(=O)N(C)CC(=O)N(C)C)CCOCC2)NC1=O (stereo partly drawn) [compound 215, cPEG3aCO-Pen(3)-N(N(Me)2)-T-7MeW-K(NMeAc)-Pen(3)-DMMMF-2Nal-THP-K(NMeAc)-N-3Pya-Sar-CON(Me)2] ({Me3N+(CH2)2O(CH2)2O(CH2)2CO}-[Pen]D(NMe2)T[Trp(7-Me)][Lys(Me)](Ac)[Pen]Y(X86)[2Nal][Thp][Lys(Me)](Ac)N[3Pal][Sar]-NMe2; disulfide 1-6)	145
CC(=O)N[C@H](CCCC[N+](C)(C)C)C(=O)N[C@@H]1C(=O)N[C@@H](CC(=O)N(C)C)C(=O)N[C@@H]([C@@H](C)O)C(=O)N[C@@H](Cc2c[nH]c3c(C)cccc23)C(=O)N[C@@H](CCCCN(C)C(C)=O)C(=O)N[C@H](C(=O)N[C@@H](Cc2ccc(OCCOCCOCC[N+](C)(C)C)cc2)C(=O)N[C@@H](Cc2ccc3ccccc3c2)C(=O)NC2(C(=O)N[C@@H](CCCCN(C)C(C)=O)C(=O)N[C@@H](CC(N)=O)C(=O)N[C@@H](Cc3cccnc3)C(=O)N(C)CC(=O)N(C)C)CCOCC2)C(C)(C)SSC1(C)C [compound 216, MeCO-k(Me)3-Pen(3)-N(N(Me)2)-T-7MeW-K(NMeAc)-Pen(3)-APEG3F-2Nal-THP-K(NMeAc)-N-3Pya-Sar-CON(Me)2] (Ac-[dLys(Me3)][Pen]D(NMe2)T[Trp(7-Me)][Lys(Me)](Ac)[Pen]Y(CH2CH2OCH2CH2OCH2CH2NMe3+)[2Nal][Thp][Lys(Me)](Ac)N[3Pal][Sar]-NMe2; disulfide 2-7)	141

Results, then the compound that gave them:

EPSA [A^2]	Compound
147	CC(=O)NCCCC[C@@H]1NC(=O)[C@H](Cc2c[nH]c3c(C)cccc23)NC(=O)[C@H]([C@@H](C)O)NC(=O)[C@H](CC(N)=O)NC(=O)[C@@H](NC(=O)CCOCCOCC[N+](C)(C)C)C(C)(C)SSC(C)(C)[C@@H](C(=O)N[C@@H](Cc2ccc(OCCOCCOCC[N+](C)(C)C)cc2)C(=O)N[C@@H](Cc2ccc3ccccc3c2)C(=O)NC2(C(=O)N[C@@H](CCCCNC(C)=O)C(=O)N[C@@H](CC(N)=O)C(=O)N[C@@H](Cc3cccnc3)C(=O)N(C)CC(N)=O)CCOCC2)NC1=O [compound 195, cPEG3aCO-Pen(3)-N-T-7MeW-K(Ac)-Pen(3)-APEG3F-2Nal-THP-K(Ac)-N-3Pya-Sar-CONH2] ({Me3N+(CH2)2O(CH2)2O(CH2)2CO}-[Pen]NT[Trp(7-Me)]K(Ac)[Pen]Y(CH2CH2OCH2CH2OCH2CH2NMe3+)[2Nal][Thp]K(Ac)N[3Pal][Sar]-NH2; disulfide 1-6)
153	COCCOCCCNCCOc1ccc(C[C@H](NC(=O)[C@H]2NC(=O)[C@H](CCCCNC(C)=O)NC(=O)[C@H](Cc3c[nH]c4c(C)cccc34)NC(=O)[C@H]([C@@H](C)O)NC(=O)[C@H](CC(N)=O)NC(=O)[C@@H](NC(=O)CCCCC[N+](C)(C)C)C(C)(C)SSC2(C)C)C(=O)N[C@@H](Cc2ccc3ccccc3c2)C(=O)NC2(C(=O)N[C@@H](CNC(C)=O)C(=O)N[C@@H](CC(N)=O)C(=O)N[C@@H](Cc3cccnc3)C(=O)N(C)CC(N)=O)CCOCC2)cc1 [compound 204] ({Hexanoyl(6-NMe3+)}-[Pen]NT[Trp(7-Me)]K(Ac)[Pen]Y(X61)[2Nal][Thp][Dap](Ac)N[3Pal][Sar]-NH2; disulfide 1-6)
149	COCCOCCCN(CCCOCCOC)CCOc1ccc(C[C@H](NC(=O)[C@H]2NC(=O)[C@H](CCCCNC(C)=O)NC(=O)[C@H](Cc3c[nH]c4c(C)cccc34)NC(=O)[C@H]([C@@H](C)O)NC(=O)[C@H](CC(N)=O)NC(=O)[C@@H](NC(=O)CCCCC[N+](C)(C)C)C(C)(C)SSC2(C)C)C(=O)N[C@@H](Cc2ccc3ccccc3c2)C(=O)NC2(C(=O)N[C@@H](CNC(C)=O)C(=O)N[C@@H](CC(N)=O)C(=O)N[C@@H](Cc3cccnc3)C(=O)N(C)CC(N)=O)CCOCC2)cc1 [compound 205] ({Hexanoyl(6-NMe3+)}-[Pen]NT[Trp(7-Me)]K(Ac)[Pen]Y(X4)[2Nal][Thp][Dap](Ac)N[3Pal][Sar]-NH2; disulfide 1-6)
141	CC(=O)N(C)CCCC[C@@H]1NC(=O)[C@H](Cc2c[nH]c3c(C)cccc23)NC(=O)[C@H]([C@@H](C)O)NC(=O)[C@H](CC(=O)N(C)C)NC(=O)[C@@H](NC(=O)CCOCCOCC[N+](C)(C)C)C(C)(C)SSC(C)(C)[C@@H](C(=O)N[C@@H](Cc2ccc(OCCN(CC[N+](C)(C)C)C(=O)CCOCCOCC[N+](C)(C)C)cc2)C(=O)N[C@@H](Cc2ccc3ccccc3c2)C(=O)NC2(C(=O)N[C@@H](CCCCN(C)C(C)=O)C(=O)N[C@@H](CC(N)=O)C(=O)N[C@@H](Cc3cccnc3)C(=O)N(C)CC(=O)N(C)C)CCOCC2)NC1=O [compound 208, cPEG3aCO-Pen(3)-N(N(Me)2)-T-7MeW-K(NMeAc)-Pen(3)-AEF((Ch)cPEG3a)-2Nal-THP-K(NMeAc)-N-3Pya-Sar-CON(Me)2] ({Me3N+(CH2)2O(CH2)2O(CH2)2CO}-[Pen]D(NMe2)T[Trp(7-Me)][Lys(Me)](Ac)[Pen]Y(X34)[2Nal][Thp][Lys(Me)](Ac)N[3Pal][Sar]-NMe2; disulfide 1-6)
139	CC(=O)N(C)CCCC[C@@H]1NC(=O)[C@H](Cc2c[nH]c3c(C)cccc23)NC(=O)[C@H]([C@@H](C)O)NC(=O)[C@H](CC(=O)N(C)C)NC(=O)[C@@H](NC(=O)CCOCCOCC[N+](C)(C)C)C(C)(C)SSC(C)(C)[C@@H](C(=O)N[C@@H](Cc2ccc(OCCOCCOCC[N+](C)(C)C)cc2)C(=O)N[C@@H](Cc2ccc3ccccc3c2)C(=O)NC2(C(=O)N[C@@H](CCN(C)C(C)=O)C(=O)N[C@@H](CC(N)=O)C(=O)N[C@@H](Cc3cccnc3)C(=O)N(C)CC(=O)N(C)C)CCOCC2)NC1=O [compound 209, cPEG3aCO-Pen(3)-N(N(Me)2)-T-7MeW-K(NMeAc)-Pen(3)-APEG3F-2Nal-THP-Dab(NMeAc)-N-3Pya-Sar-CON(Me)2] ({Me3N+(CH2)2O(CH2)2O(CH2)2CO}-[Pen]D(NMe2)T[Trp(7-Me)][Lys(Me)](Ac)[Pen]Y(CH2CH2OCH2CH2OCH2CH2NMe3+)[2Nal][Thp][Dab(NMeAc)]N[3Pal][Sar]-NMe2; disulfide 1-6)
